# Earlier results in patent US12100485B2, “Machine learning and molecular simulation based methods for enhancing binding and activity prediction” (The Board of Trustees of the Leland Stanford Junior …, priority 2018, dated 2024).
# Tested on: μOR
row,Compound,Action
1,COc1cccc2c1[C@]13CCN(CC4CC4)[C@H](C2)[C@]1(OC)CCC(=O)C3 [cyprodime],antagonist
2,Oc1ccc2c(c1)[C@@]13CCCC[C@H]1[C@@H](C2)N(CCc1ccccc1)CC3 [phenomorphan],agonist
3,N/N=C1/CC[C@@]2(O)[C@H]3Cc4ccc(O)c5c4[C@@]2(CCN3CC2CC2)[C@H]1O5 [naltrexazone],Antagonists
4,CCC(O)C(CC(C)N(C)C)(c1ccccc1)c1ccccc1 (stereo not drawn) [dimepheptanol],agonist
5,CC(C)OC(=O)C1(c2ccccc2)CCN(C)CC1 [properidine],agonist
6,CO[C@H]1C=C[C@H]2[C@H]3Cc4ccc(O)c5c4[C@@]2(CCN3C)[C@H]1O5 [heterocodeine],agonist
7,CCC(=O)C1(c2cccc(O)c2)CCN(C)CC1 [ketobemidone],agonist
8,NC(=O)c1ccc2c(c1O)[C@]13CCN(CC4CC4)[C@H](C2)[C@]1(O)CCC(=O)C3 [samidorphan],Antagonists
9,CCOC(=O)C1(c2ccccc2)CCN(C)CC1 [pethidine],agonist
10,endomorphin-1,agonist
11,CCC(=O)C(CC(C)N1CCOCC1)(c1ccccc1)c1ccccc1 (stereo not drawn) [phenadoxone],agonist
12,CN(C)C(=O)C(CCN1CCC(O)(c2ccc(Cl)cc2)CC1)(c1ccccc1)c1ccccc1 [loperamide],agonist
13,CC[C@@H](O)C(C[C@@H](C)N(C)C)(c1ccccc1)c1ccccc1 [alphamethadol],agonist
14,CCC(=O)OC1(c2ccccc2)CCCN(C)CC1C (stereo not drawn) [proheptazine],agonist
15,CCC(=O)C(CC(C)N1CCCCC1)(c1ccccc1)c1ccccc1 (stereo not drawn) [dipipanone],agonist
16,CCOC(=O)C1(c2cccc(O)c2)CCN(C)CC1 [hydroxypethidine],agonist
17,CCOC(=O)C1(c2ccccc2)CCN(CCc2ccccc2)CC1 [pheneridine],agonist
18,COc1ccsc1CNCC[C@@]1(c2ccccn2)CCOC2(CCCC2)C1 [oliceridine],agonist
19,CO[C@@]12CCC(=O)[C@@H]3Oc4c(O)ccc5c4[C@@]31CCN(C)[C@@H]2C5 [14-methoxydihydromorphinone],agonist
20,CCC(=O)O[C@](Cc1ccccc1)(c1ccccc1)[C@H](C)CN(C)C [dextropropoxyphene],agonist
21,CCOC(=O)C1(c2ccccc2)CCN(CCOCc2ccccc2)CC1 [benzethidine],agonist
